Data set [1] has as its target T1, HCV NS3/4A protease complex, BMS strain (UniProt P27958, species not given/STRAIN_BMS).
T1 construct: said of H77 and J4L6S; fused on or other part: A three-lysine solubilising tail at the C-terminus of NS4A and a His tag (pET21b, Ni-NTA purification)
The data set can be described thus: FRET peptide assay to monitor HCV NS3/4A proteolytic activity (BMS strain). It is filed as biochemical, Hepatitis C virus (genotype 1a). The settings on record: NS3/4A BMS strain; read-out: IC50 Range. The text has this:
HCV NS3 protease complexes, derived from the BMS strain, H77 strain or J4L6S strain, were generated, as described below. These purified recombinant proteins were generated for use in a homogeneous assay (see below) to provide an indication of how effective compounds of the present disclosure would be in inhibiting HCV NS3 proteolytic activity.
Serum from an HCV-infected patient was obtained from Dr. T. Wright, San Francisco Hospital. An engineered full-length cDNA (compliment deoxyribonucleic acid) template of the HCV genome (BMS strain) was constructed from DNA fragments obtained by reverse transcription-PCR (RT-PCR) of serum RNA (ribonucleic acid) and using primers selected on the basis of homology between other genotype 1a strains. From the determination of the entire genome sequence, a genotype 1a was assigned to the HCV isolate according to the classification of Simmonds et al. (See P Simmonds, K A Rose, S Graham, S W Chan, F McOmish, B C Dow, E A Follett, P L Yap and H Marsden, J. Clin. Microbiol., 31(6), 1493-1503 (1993)). […] The infectious clones, H77 (1a genotype) and J4L6S (1b genotype) were obtained from R. Purcell (NIH) and the sequences are published in Genbank (AAB67036, see Yanagi, M., Purcell, R. H., Emerson, S. U. and Bukh, J. Proc. Natl. Acad. Sci. U.S.A. 94(16), 8738-8743 (1997); AF054247, see Yanagi, M., St Claire, M., Shapiro, M., Emerson, S. U., Purcell, R. H. and Bukh, J, Virology 244 (1), 161-172. (1998)).
The H77 and J4L6S strains were used for production of recombinant NS3/4A protease complexes. DNA encoding the recombinant HCV NS3/4A protease complex (amino acids 1027 to 1711) for these strains were manipulated as described by P. Gallinari et al. (see Gallinari P, Paolini C, Brennan D, Nardi C, Steinkuhler C, De Francesco R. Biochemistry. 38(17):5620-32, (1999)). Briefly, a three-lysine solubilizing tail was added at the 3′-end of the NS4A coding region. The cysteine in the P1 position of the NS4A-NS4B cleavage site (amino acid 1711) was changed to a glycine to avoid the proteolytic cleavage of the lysine tag. Furthermore, a cysteine to serine mutation was introduced by PCR at amino acid position 1454 to prevent the autolytic cleavage in the NS3 helicase domain. The variant DNA fragment was cloned in the pET21b bacterial expression vector (Novagen) and the NS3/4A complex was expressed in Escherichia coli strain BL21 (DE3) (Invitrogen) following the protocol described by P. Gallinari et al. (see Gallinari P, Brennan D, Nardi C, Brunetti M, Tomei L, Steinkuhler C, De Francesco R., J Virol. 72(8):6758-69 (1998)) with modifications. Briefly, the NS3/4A protease complex expression was induced with 0.5 mM Isopropyl β-D-1-thiogalactopyranoside (IPTG) for 22 hours (h) at 20° C. A typical fermentation (1 Liter (L)) yielded approximately 10 grams (g) of wet cell paste. The cells were resuspended in lysis buffer (10 mL/g) consisting of 25 mM N-(2-Hydroxyethyl)Piperazine-N′-(2-Ethane Sulfonic acid) (HEPES), pH 7.5, 20% glycerol, 500 mM Sodium Chloride (NaCl), 0.5% Triton X-100, 1 microgram/milliliter (“μg/mL”) lysozyme, 5 mM Magnesium Chloride (MgCl2), 1 μg/ml Dnasel, 5 mM β-Mercaptoethanol (βME), Protease inhibitor-Ethylenediamine Tetraacetic acid (EDTA) free (Roche), homogenized and incubated for 20 minutes (min) at 4° C. The homogenate was sonicated and clarified by ultra-centrifugation at 235000 g for 1 h at 4° C. Imidazole was added to the supernatant to a final concentration of 15 mM and the pH adjusted to 8.0. The crude protein extract was loaded on a Nickel-Nitrilotriacetic acid (Ni-NTA) column pre-equilibrated with buffer B (25 mM HEPES, pH 8.0, 20% glycerol, 500 mM NaCl, 0.5% Triton X-100, 15 mM imidazole, 5 mM βME). The sample was loaded at a flow rate of 1 mL/min. The column was washed with 15 column volumes of buffer C (same as buffer B except with 0.2% Triton X-100). The protein was eluted with 5 column volumes of buffer D (same as buffer C except with 200 mM Imidazole). […]

The test system of data set [2] is HCV replicon in HUH-7 cells. The data set can be described thus: HCV replicon FRET assay. It is filed as cell-based, Hepatitis C virus (strain 1b). The settings on record: Hepatitis C virus, Huh-7; HCV replicon, for compounds tested; read-out: EC50 Range. An excerpt:
An HCV replicon whole cell system was established as described by Lohmann V, Komer F, Koch J, Herian U, Theilmann L, Bartenschlager R., Science 285(5424):110-3 (1999). This system enabled us to evaluate the effects of our HCV Protease compounds on HCV RNA replication. Briefly, using the HCV strain 1b sequence described in the Lohmann paper (Assession number: AJ238799), an HCV cDNA was synthesized by Operon Technologies, Inc. (Alameda, Calif.), and the full-length replicon was then assembled in plasmid pGem9zf(+) (Promega, Madison, Wis.) using standard molecular biology techniques. The replicon consists of (i) the HCV 5′ UTR fused to the first 12 amino acids of the capsid protein, (ii) the neomycin phosphotransferase gene (neo), (iii) the IRES from encephalomyocarditis virus (EMCV), and (iv) HCV NS3 to NS5B genes and the HCV 3′ UTR. Plasmid DNAs were linearized with Scal and RNA transcripts were synthesized in vitro using the T7 MegaScript transcription kit (Ambion, Austin, Tex.) according to manufacturer's directions. In vitro transcripts of the cDNA were transfected into the human hepatoma cell line, HUH-7. […] Resulting cell lines were characterized for positive and negative strand RNA production and protein production over time.
The HCV replicon FRET assay was developed to monitor the inhibitory effects of compounds described in the disclosure on HCV viral replication. HUH-7 cells, constitutively expressing the HCV replicon, were grown in Dulbecco's Modified Eagle Media (DMEM) (Gibco-BRL) containing 10% Fetal calf serum (FCS) (Sigma) and 1 mg/ml G418 (Gibco-BRL). Cells were seeded the night before (1.5×10^4 cells/well) in 96-well tissue-culture sterile plates. Compound and no compound controls were prepared in DMEM containing 4% FCS, 1:100 Penicillin/Streptomysin (Gibco-BRL), 1:100 L-glutamine and 5% DMSO in the dilution plate (0.5% DMSO final concentration in the assay). Compound/DMSO mixes were added to the cells and incubated for 4 days at 37° C. After 4 days, cells were first assessed for cytotoxicity using alamar Blue (Trek Diagnotstic Systems) for a CC50 reading. The toxicity of compound (CC50) was determined by adding 1/10th volume of alamar Blue to the media incubating the cells. After 4 hours, the fluorescence signal from each well was read, with an excitation wavelength at 530 nm and an emission wavelength of 580 nm, using the Cytofluor Series 4000 (Perspective Biosystems). Plates were then rinsed thoroughly with Phosphate-Buffered Saline (PBS) (3 times 150 μl). The cells were lysed with 25 μl of a lysis assay reagent containing an HCV protease substrate (5× cell Luciferase cell culture lysis reagent (Promega #E153A) diluted to 1× with distilled water, NaCl added to 150 mM final, the FRET peptide substrate (as described for the enzyme assay above) diluted to 10 μM final from a 2 mM stock in 100% DMSO. […]. The plate was then placed into the Cytofluor 4000 instrument which had been set to 340 nm excitation/490 nm emission, automatic mode for 21 cycles and the plate read in a kinetic mode. EC50 determinations were carried out as described for the IC50 determinations.
Background: A replicon is a self-replicating genome or part of one, used to study replication in cells.

T1 sequence (P27958 1027-1657, change not shown, one chain of several): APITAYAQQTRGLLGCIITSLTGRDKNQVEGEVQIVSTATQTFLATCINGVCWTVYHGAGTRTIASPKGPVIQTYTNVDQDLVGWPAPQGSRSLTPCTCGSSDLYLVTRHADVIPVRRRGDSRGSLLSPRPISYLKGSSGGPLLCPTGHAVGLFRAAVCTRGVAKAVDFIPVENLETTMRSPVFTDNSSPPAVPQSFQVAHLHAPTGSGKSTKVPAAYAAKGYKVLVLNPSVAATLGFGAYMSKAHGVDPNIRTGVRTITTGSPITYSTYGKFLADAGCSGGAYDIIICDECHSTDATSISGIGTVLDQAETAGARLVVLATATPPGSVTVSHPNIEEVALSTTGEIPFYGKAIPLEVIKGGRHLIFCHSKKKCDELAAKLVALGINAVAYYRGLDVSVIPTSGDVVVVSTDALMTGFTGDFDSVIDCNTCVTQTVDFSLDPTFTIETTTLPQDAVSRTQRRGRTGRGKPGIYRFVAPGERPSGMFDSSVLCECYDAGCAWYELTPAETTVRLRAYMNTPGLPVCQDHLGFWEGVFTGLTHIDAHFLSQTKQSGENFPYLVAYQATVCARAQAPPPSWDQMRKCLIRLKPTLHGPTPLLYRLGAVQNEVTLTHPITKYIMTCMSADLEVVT

For the compound `CC(C)(C)OC(=O)N[C@H]1CCCOC/C=C\[C@@H]2C[C@@]2(C(=O)NS(=O)(=O)C2CC2)NC(=O)[C@@H]2C[C@@H](OC(=O)C(C)(C)C)CN2C1=O` [Compound 4, 18-pivaloyloxy-14-tert-butoxycarbonylamino-4-cyclopropylsulfonylaminocarbonyl-2,15-dioxo-3,16-diaza-10-oxatricyclo-[14.3.0.0^4,6]-nonadec-7-ene], the melting point (usually the temperature of the solid-liquid transition) is 143 to 145 °C. Moreover, in data set [1], the IC50 (in general, the concentration that inhibits the measured activity by half) is under 100 nM. Moreover, the EC50 (usually the concentration at which the effect is half-maximal) in data set [2] is over 1000 nM.
On the same counts, the results for `CC(C)(C)OC(=O)N[C@H]1CCCCC/C=C\[C@@H]2C[C@@]2(C(=O)NS(=O)(=O)C2CC2)NC(=O)[C@@H]2C[C@@H](OC(=O)c3ccc4c(c3)OCO4)CN2C1=O` [Compound 16, 18-(3,4-methylenedioxybenzoyloxy)-14-tert-butoxycarbonylamino-4-cyclopropylsulfonylaminocarbonyl-2,15-dioxo-3,16-diazatricyclo-[14.3.0.0^4,6]-nonadec-7-ene] are 153 to 155 °C, under 100 nM and under 100 nM.
On the same counts, the results for `CC(C)(C)OC(=O)N[C@H]1CCCCC/C=C\[C@@H]2C[C@@]2(C(=O)NS(=O)(=O)C2CC2)NC(=O)[C@@H]2C[C@@H](OC(=O)c3ccc(F)cc3)CN2C1=O` [Compound 29, 18-(4-fluorobenzoyloxy)-14-tert-butoxycarbonylamino-4-cyclopropylsulfonylaminocarbonyl-2,15-dioxo-3,16-diazatricyclo-[14.3.0.0^4,6]-nonadec-7-ene] are 154 to 156 °C, under 100 nM and under 100 nM.
Consider `Cc1cc(C(=O)O[C@@H]2C[C@H]3C(=O)N[C@]4(C(=O)NS(=O)(=O)C5CC5)C[C@H]4/C=C\CCCCC[C@H](NC(=O)OC(C)(C)C)C(=O)N3C2)n(C)n1` [Compound 35], for which the melting point was in the range of 149 to 151 °C. Besides, the IC50 in data set [1] was under 100 nM. The EC50 in data set [2] lay in the range of 100 to 1000 nM.
`CC(C)(C)OC(=O)N[C@H]1COCCC/C=C\[C@@H]2C[C@@]2(C(=O)NS(=O)(=O)C2CC2)NC(=O)[C@@H]2C[C@@H](OC(=O)N3CCc4ccccc43)CN2C1=O` [Compound 45, 18-(indolinecarbonyloxy)-14-tert-butoxycarbonylamino-4-cyclopropylsulfonylaminocarbonyl-2,15-dioxo-3,16-diaza-12-oxatricyclo-[14.3.0.0^4,6]-nonadec-7-ene] returned a melting point of 128 to 130 °C. In data set [1], the IC50 was under 100 nM. Besides, in data set [2], the EC50 was in the range of 100 to 1000 nM.
On the same counts, the results for `COc1cccc(C(=O)O[C@@H]2C[C@H]3C(=O)N[C@]4(C(=O)NS(=O)(=O)C5CC5)C[C@H]4/C=C\COCCC[C@H](NC(=O)OC(C)(C)C)C(=O)N3C2)c1` [Compound 9, 18-(3-methoxybenzoyloxy)-14-tert-butoxycarbonylamino-4-cyclopropylsulfonylaminocarbonyl-2,15-dioxo-3,16-diaza-10-oxatricyclo-[14.3.0.0^4,6]-nonadec-7-ene] are 149 to 151 °C, under 100 nM and 100 to 1000 nM.
On the same counts, the results for `CCOC(=O)c1ccccc1NC(=O)N[C@H]1CCCCC/C=C\[C@@H]2C[C@@]2(C(=O)NS(=O)(=O)C2CC2)NC(=O)[C@@H]2C[C@@H](OC(=O)Nc3ccccc3C(=O)OCC)CN2C1=O` [Compound 44] are 142 to 144 °C, under 100 nM and 100 to 1000 nM.
On the same counts, the results for `CC(C)(C)OC(=O)N[C@H]1CCCOC/C=C\[C@@H]2C[C@@]2(C(=O)NS(=O)(=O)C2CC2)NC(=O)[C@@H]2C[C@@H](OC(=O)C3CCCCC3)CN2C1=O` [Compound 3, 18-cyclohexanecarbonyloxy-14-tert-butoxycarbonylamino-4-cyclopropylsulfonylaminocarbonyl-2,15-dioxo-3,16-diaza-10-oxatricyclo-[14.3.0.0^4,6]-nonadec-7-ene] are 128 to 130 °C, under 100 nM and over 1000 nM.

Source of the values: patent US7772183B2 (Bristol-Myers Squibb Company, priority 2005, dated 2010).
